Consider two molecules from patent publication US12268667B2, “JAK1 pathway inhibitors for the treatment of prurigo nodularis” (Incyte Corporation, priority 2021, dated 2025).

The target in assay [1] is human JAK1 (a.a. 837-1142) (Homo sapiens, UniProt P23458). Nature of the assay: In vitro JAK kinase assay (HTRF), JAK1. The conditions noted are these: 1 mM ATP. Type of assay: biochemical. Background: TR-FRET usually uses a lanthanide donor and a delayed reading to cut background.
Protocol: (§1) The catalytic activity of JAK1, JAK2 or JAK3 are assayed by measuring the phosphorylation of a biotinylated peptide. The phosphorylated peptide was detected by homogenous time resolved fluorescence (HTRF). […] Reactions are carried out at room temperature for 1 hour and then stopped with 20 μL 45 mM EDTA, 300 nM SA-APC, 6 nM Eu-Py20 in assay buffer (Perkin Elmer, Boston, MA). Binding to the Europium labeled antibody takes place for 40 minutes and HTRF signal was measured on a Fusion plate reader (Perkin Elmer, Boston, MA).
For assay [2], the target named is human JAK2 (a.a. 828-1132) (Homo sapiens (Human), UniProt O60674). Nature of the assay: In vitro JAK kinase assay (HTRF), JAK2. The conditions noted are these: JAK2/JAK1 IC50 ratio at 1 mM ATP. Type of assay: biochemical.
Chain of human JAK2 (a.a. 828-1132) (O60674 828-1132): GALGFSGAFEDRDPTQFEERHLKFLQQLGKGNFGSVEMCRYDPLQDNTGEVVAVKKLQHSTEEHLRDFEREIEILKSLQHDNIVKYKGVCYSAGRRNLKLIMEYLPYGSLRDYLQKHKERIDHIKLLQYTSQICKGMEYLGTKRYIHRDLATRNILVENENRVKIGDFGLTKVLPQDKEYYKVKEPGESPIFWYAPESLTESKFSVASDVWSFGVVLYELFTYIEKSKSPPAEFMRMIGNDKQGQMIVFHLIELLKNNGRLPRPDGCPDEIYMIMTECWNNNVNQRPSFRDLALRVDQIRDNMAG
Protocol: as §1
The subject of assay [3] is IL-31. To be noted: cited from earlier work.
The test system of assay [4] is PN lesional skin. The conditions noted are these: PN skin cultured with nemolizumab; cited from earlier work.

In the case of `N#CCC(C1CCN(c2cccc(Cl)n2)C1)n1cc(-c2ncnc3[nH]ccc23)cn1` (single isomer, unassigned) [Compound 6, 3-[1-(6-chloropyridin-2-yl)pyrrolidin-3-yl]-3-[4-(7H-pyrrolo[2,3-d]pyrimidin-4-yl)-1H-pyrazol-1-yl]propanenitrile], the IC50 in assay [1] is below 10 nM. Besides, the JAK2/JAK1 in assay [2] is recorded as above 10.

B1: nemolizumab (antibody, chains of the INN, looked up)
heavy: QVQLVQSGAEVKKPGASVKVSCKASGYTFTGYIMNWVRQAPGQGLEWMGLINPYNGGTDYNPQFQDRVTITADKSTSTAYMELSSLRSEDTAVYYCARDGYDDGPYTLETWGQGTLVTVSSASTKGPSVFPLAPSSKSTSGGTAALGCLVKDYFPEPVTVSWNSGALTSGVHTFPAVLQSSGLYSLSSVVTVPSSNFGTQTYTCNVDHKPSNTKVDKTVERKSCVECPPCPAPPVAGPSVFLFPPKPKDTLMISRTPEVTCVVVDVSQEDPEVQFNWYVDGVEVHNAKTKPREEQFNSTFRVVSVLTVVHQDWLNGKEYKCKVSNKGLPAPIEKTISKTKGQPREPQVYTLPPSQEEMTKNQVSLTCLVKGFYPSDIAVEWESNGQPENNYKTTPPMLDSDGSFFLYSKLTVDKSRWQEGNVFSCSVMHEALHNHYTQKSLSLSP
light: DIQMTQSPSSLSASVGDRVTITCQASEDIYSFVAWYQQKPGKAPKLLIYNAQTEAQGVPSRFSGSGSGTDFTLTISSLQPEDFATYYCQHHYDSPLTFGGGTKVEIKRTVAAPSVFIFPPSDEQLKSGTASVVCLLNNFYPREAKVQWKVDNALQSGNSQESVTEQDSKDSTYSLSSTLTLSKADYEKHKVYACEVTHQGLSSPVTKSFNRGEC
Take B1: in assay [3], the “effect on pruritus and skin lesions in PN patients” value is “improvement in pruritus and skin lesions”. Further, in assay [4], the “IL-17 levels in lesional skin” value was “reduction in IL-17 levels”.

One may read the IC50 as the concentration that inhibits the measured activity by half. Higher therefore signals weaker potency.
